This note sets out measurements from patent US9403756B2, “N-phenyl anthranilic acid derivatives and uses thereof” (Ramot at Tel-Aviv University Ltd., priority 2007, dated 2016).

The test system of one experiment is DRG neurons. The experiment can be described thus: Current-clamp recordings in cultured DRG neurons. It counts as cell-based, rat. The note with it: for rheobase current to generate a single spike: 2 ms injection. The method, then:
For dorsal root ganglion (DRG) neuronal cultures, ganglia were dissected from 2-5 day-old Sprague-Dawley rats killed by decapitation. DRGs were placed in Hank's balanced saline solution (HBSS) and prepared by enzymatic dissociation. Briefly, after 30 minutes incubation in 5 mg/ml dispase, 2 mg/ml collagenase type 1A and 0.1 mg/ml DNase (Invitrogen/Gibco, Carlsbad, Calif.) in Ca^2+ and Mg^2+-free HBSS, the ganglia were mechanically triturated with a fire-polished glass Pasteur pipette. The ganglia were then centrifuged for 5 minutes at 80×g and resuspended in DMEM supplemented with 2 mM L-glutamine, 16.5 mM NaHCO3, 6 g/l glucose, 5 ml penicillin/streptomycin and 10% fetal calf serum.
For electrophysiological recording, dissociated neurons were plated on 13 mm glass coverslips, previously coated with poly-D-lysine (1 mg/ml) and laminin (10 μg/ml) and used at 1-2 days in culture.
For current-clamp recordings in primary cultured neurons, the patch pipettes were filled with (in mM): 135 KCl, 1 K2ATP, 1 MgATP, 2 EGTA, 1.1 CaCl2, 5 glucose, 10 HEPES, adjusted with KOH at pH 7.4 (315 mOsm). The external solution contained (in mM): 150 NaCl, 2.5 KCl, 2 CaCl2, 2 MgCl2, 15 glucose, 10 HEPES, adjusted with NaOH at pH 7.4 (325 mOsm). Recordings were sampled at 5 kHz and filtered at 2 KHz via a 4-pole Bessel low pass filter. A liquid junction potential of about −15.6 mV was measured between the intracellular and saline solutions and corrected on-line.
For evoking spike discharges, 75-200 pA square depolarizing current pulses were injected into neurons for 400 ms. For rheobase current measurements, 100-1100 pA square depolarizing current pulses were injected into neurons for 2 ms.

The test system of the next experiment is COX. The experiment can be described thus: Anti-COX activity in cell culture, CT26 and D122 cell lines (results in words). It counts as cell-based, mouse. Particulars: COX-dependent synthesis of PGE2. The method, then:
Mouse colon adenocarcinoma CT26 and mouse lewis lung carcinoma D122 cells were grown in DMEM (D122) or RPMI (CT26) supplemented with 10% fetal calf serum, 4% glutamine, 1% penicillin-streptomycin-nystatin and 3% non essential amino acids (D122) and were kept in a humidified 37° C. incubator with 5% CO2. For the COX activity assays, cells were grown onto 24 multi-well plates.
Before the assay, cells were washed with serum-free medium; then the tested compounds were added to the medium and incubated for 30 minutes at 37° C. after which 30 μM arachidonic acid were added and incubated for additional 20 minutes. At the end of the incubation period, 10 μM Indomethacin were added to stop the reaction and medium was transferred to another 24 multi-well plate for measuring PGE2 production by radioimmunoassay (DuPont-NEN; Boston Mass.) according to manufacturer protocol. Protein determination was assayed on scraped cells using the Bradford method (1976) [Bradford M. M. 1976. Anal. Biochem. 72:248-254], with BSA as a standard and was used to normalize the amount of PGE2 production.
The anti-COX activity of NH25, NH29 and NH30 was examined in Mouse colon adenocarcinoma CT26 and mouse lewis lung carcinoma D122 cell lines. Cells were incubated with each of the tested compounds and the level of the COX-dependent synthesis of PGE2 was quantified using radioimmunoassay techniques.

The target of the next experiment is T1, IKS (Homo sapiens, UniProt P51787).
T1 construct: expressed in transfected cells; host or cells: Xenopus oocytes
The experiment is described as follows: Kv channel selectivity, Xenopus oocytes: IKS. It counts as cell-based. The note with it: +30 mV. As to the method:
Voltage-clamp measurements in Xenopus oocytes were performed as previously described.
(§1) The selectivity of NH29 on other relevant Kv channels expressed in Xenopus oocytes was also studied, and the results are summarized in Table 3 below. The specificity of NH29 at 25 μM and 50 μM towards various Kv channels was tested in Xenopus oocytes, except for Kv1.2 which was checked in transfected CHO cells. The current amplitude of the various Kv channels was tested at the indicated voltages and the effect of the drugs was expressed as fold of the control amplitude measured under the same conditions in the absence of the drug. The data in Table 3 are expressed as mean±SEM of 5-7 separate experiments.

A further experiment addresses T2, Kv1.2 (Homo sapiens, UniProt P16389).
T2 construct: expressed in transfected cells; host or cells: CHO cells
The experiment is described as follows: Kv channel selectivity, transfected CHO cells: Kv1.2. It counts as cell-based. Particulars: for Fold current amplitude: 0 mV, transfected CHO cells. The method, then:
Voltage-clamp recordings in CHO cells were performed, using the whole-cell configuration of the patch-clamp technique. Signals were amplified using an Axopatch 200B patch-clamp amplifier (Molecular Devices, Sunnyvale, Calif.), sampled at 2 kHz and filtered at 800 Hz via a 4-pole Bessel low pass filter. Data were acquired using pClamp 9.2 software (Molecular Devices) and an IBM compatible Pentium IV computer in conjunction with a DigiData 1322A interface (Molecular Devices). The patch pipettes were pulled from borosilicate glass (Warner Instrument Corp, USA) with a resistance of 2-5 MΩ. For K^+ current recordings in CHO cells, the intracellular pipette solution contained (in mM): 130 KCl, 1 MgCl2, 5 K2ATP, 5 EGTA, 10 HEPES, adjusted with KOH to pH 7.4 (290 mOsm). The extracellular solution contained (in mM): 140 NaCl, 4 KCl, 1.8 CaCl2, 1.2 MgCl2, 11 glucose, 5.5 HEPES, adjusted with NaOH to pH 7.4 (310 mOsm). Series resistances (3-13 MΩ) were compensated (75-90%) and periodically monitored.
as §1

T2 sequence (P16389 whole entry): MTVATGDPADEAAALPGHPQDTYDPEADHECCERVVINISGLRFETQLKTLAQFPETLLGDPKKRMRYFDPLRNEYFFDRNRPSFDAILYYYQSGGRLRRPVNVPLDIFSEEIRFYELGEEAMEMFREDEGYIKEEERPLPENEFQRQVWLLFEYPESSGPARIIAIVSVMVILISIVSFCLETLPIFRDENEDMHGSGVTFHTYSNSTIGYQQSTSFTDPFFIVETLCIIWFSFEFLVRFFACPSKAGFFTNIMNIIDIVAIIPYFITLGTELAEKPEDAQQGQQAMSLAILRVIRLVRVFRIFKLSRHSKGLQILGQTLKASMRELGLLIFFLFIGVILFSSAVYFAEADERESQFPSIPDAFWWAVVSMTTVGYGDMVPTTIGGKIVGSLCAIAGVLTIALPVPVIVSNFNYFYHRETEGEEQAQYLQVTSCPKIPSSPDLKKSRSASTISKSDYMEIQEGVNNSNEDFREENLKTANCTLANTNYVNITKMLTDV
T1 sequence (P51787 whole entry): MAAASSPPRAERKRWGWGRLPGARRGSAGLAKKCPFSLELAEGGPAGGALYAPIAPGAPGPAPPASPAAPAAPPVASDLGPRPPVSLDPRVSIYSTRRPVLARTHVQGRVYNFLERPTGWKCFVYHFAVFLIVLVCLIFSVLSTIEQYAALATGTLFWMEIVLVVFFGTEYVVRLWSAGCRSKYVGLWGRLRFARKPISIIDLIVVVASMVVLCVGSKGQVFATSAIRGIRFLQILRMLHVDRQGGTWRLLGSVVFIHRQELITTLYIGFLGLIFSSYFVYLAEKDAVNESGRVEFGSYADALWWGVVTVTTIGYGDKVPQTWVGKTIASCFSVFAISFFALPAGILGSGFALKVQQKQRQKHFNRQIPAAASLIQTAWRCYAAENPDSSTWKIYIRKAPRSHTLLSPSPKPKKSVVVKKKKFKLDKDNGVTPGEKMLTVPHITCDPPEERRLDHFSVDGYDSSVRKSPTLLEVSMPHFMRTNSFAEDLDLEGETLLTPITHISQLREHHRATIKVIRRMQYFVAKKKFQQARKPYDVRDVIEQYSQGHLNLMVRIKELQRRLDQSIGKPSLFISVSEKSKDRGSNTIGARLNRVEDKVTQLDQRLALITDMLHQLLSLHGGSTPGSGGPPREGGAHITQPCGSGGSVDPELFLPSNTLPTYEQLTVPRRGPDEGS

Consider `O=C(Cc1cc([N+](=O)[O-])ccc1Nc1c(Cl)cccc1Cl)OCCO` [NH25], for which, in the experiment on DRG neurons (25 μM NH25, control 400±41 pA, n=12), the “rheobase current to generate a single spike” value is 577±38 pA. In the experiment on DRG neurons (25 μM NH25, 75-200 pA for 400 ms, control 10.4±0.8, n=8), the “number of evoked action potentials” value is given as 0.8±0.3. For the same compound, the resting membrane potential in the experiment on DRG neurons (25 μM NH25, control −60.6±0.3 mV, n=13) was −69.0±0.3 mV. The “hyperpolarization of resting membrane potential” value in the experiment with DRG neurons (25 μM NH25, n=13) is −8.3±0.2 mV. In addition, the anti-COX activity entry with COX is “exhibited anti-COX activity comparable to that of Diclofenac”.
As for `O=C(Cc1cc([N+](=O)[O-])cc([N+](=O)[O-])c1Nc1c(Cl)cc([N+](=O)[O-])cc1Cl)NCCO` [NH29], the Fold current amplitude is on record as 1.02 ± 0.04 fold on IKS (25 μM), 0.97 ± 0.04 fold on IKS (50 μM), 0.9 ± 0.01 fold on Kv1.2 (25 μM) and 0.66 ± 0.03 fold on Kv1.2 (50 μM). For the same compound, the inhibition at 50 µM at Kv1.2 (CHO, 50 μM, read-out: inhibition of Kv1.2 current) is 34%. In addition, the “rheobase current to generate a single spike” value in the experiment with DRG neurons (25 μM NH29, control 178±36 pA, n=8) turned out to be 300±55 pA. Further, the resting membrane potential with DRG neurons (25 μM NH29, control −56.0±2.2 mV, n=7) is −65.0±3.4 mV. Further, the “hyperpolarization of resting membrane potential” value with DRG neurons (25 μM NH29, n=7) is recorded as −9.0±1.9 mV. In addition, in the experiment with COX, the anti-COX activity entry is reported as “did not exhibit anti-COX activity”.
